Our source for the Ki values is patent US20070027205A1, “Diarylmethyl derivatives as potassium channel modulators” (priority 2003, published 2007).

By Ki is commonly meant a dissociation constant, usually derived from enzyme kinetics or from competition with a known ligand. The low end stands for higher affinity, the high end for lower affinity.

SMILES strings stand for the structures.

The target in the assay is T1, human intermediate-conductance Ca2+-activated K+ channels (hIK channels) (Homo sapiens, UniProt O15554).
T1 construct: expressed in transfected cells
The experiment in a line: Block of IK channels, whole-cell patch-clamp. To be noted: hIK cloned from human placenta, stably expressed in HEK293 cells; Ki = koff/kon from kinetics of the block. It is filed as cell-based. On the procedure: In this example the ability of the compounds of the invention to inhibit human intermediate-conductance Ca^2+-activated K^+ channels (hIK channels) is examined.
hIK channels have been cloned from human placenta and stably expressed in HEK293 cells. The ionic current through the channels is recorded in the whole-cell mode of the patch-clamp technique.
A Ki value is calculated from the kinetics of the block.
The inhibition of the current is assumed to occur by a simple drug (D)−receptor (R) interaction after the following scheme: [drawing 3]
This is a simple bimolecular reaction, which integrated under non-equalibrium conditions are described by the equation: It=I0*(1−(C/C+(koff/kon)))*(1−exp(−(C* kon+koff)*t))) • wherein, • It=current at time t in nA • koff=off-rate in s^−1 • I0=basal current in nA • kon=on-rate in M^−1s^−1 • C=drug concentration in μM
By using the equation above, a fit to the time-course of the decrease in current yields the values koff and kon. Ki equals the ratio koff/kon, and Ki is the test value to be reported. At t=∞ (equalibrium) the equation simplifies to the Michaelis-Menten equation with Ki=IC50.
In general terms: The patch-clamp technique gives a direct electrical read-out from membranes.
Take `N#CC(CC(=O)O)(c1ccc(F)cc1)c1ccc(F)cc1` [Compound 2, 3-Cyano-3,3-bis-(4-fluoro-phenyl)-propionic acid]: the affinity corresponds to a Ki of 2200 nM.
For `CCOC(=O)CCC(C#N)(c1ccc(F)cc1)c1ccc(F)cc1` [Compound 4, Ethyl 4-cyano-4,4-bis-(4-fluoro-phenyl) butyrate], the Ki was found to be 1400 nM.
The figure for `NC(CSC(c1ccc(F)cc1)(c1ccc(F)cc1)c1ccccc1F)=NO` [Compound 6, 2-[(2-Fluoro-phenyl)-bis-(4-fluoro-phenyl)-methanesulfanyl]-N-hydroxy acetamidine] is 530 nM; for `N#CC(Cc1ccccn1)(c1ccc(F)cc1)c1ccc([N+](=O)[O-])c(C(F)(F)F)c1` (stereo not shown) [Compound 8, 2-(4Fluoro-phenyl)-2-(4-nitro-3-trifluoromethyl-phenyl)-3-pyridin-2-yl-propionitrile] it is 65 nM.
